From US9718812B2, “Substituted thiazole or oxazole P2X7 receptor antagonists” (Axxam S.P.A., priority 2014, dated 2017)

How the values were obtained:
P2X7 receptor (hP2X7) = P2X7 receptor (hP2X7) (Homo sapiens (Human), UniProt Q99572); test: Screen Quest Fluo-8 No Wash Calcium Assay (Bz-ATP-induced Ca2+ influx, FLIPR TETRA); assay type: cell-based; conditions: HEK-293 cells stably transfected with P2X7 receptor, Fluo-8 calcium, Low Divalent Cation Assay Buffer
Procedure: Extracellular binding of Bz-ATP to P2X7 receptor opens the channel and allows Ca2+ influx into the cells. This Ca2+ entry was measured in HEK-293 cells stably transfected with P2X7 receptor using Screen Quest™ Fluo-8 No Wash Calcium Assay Kit (AAt Bioquest®, cat. 36316). Once inside the cell, the lipophilic blocking groups of Fluo-8 are cleaved by non-specific cell esterases, resulting in a negatively-charged fluorescent dye that stays inside cells. Its fluorescence increases upon binding to calcium. When HEK-293/P2X7 cells are stimulated with Bz-ATP, Ca2+ enters the cells and the fluorescence of Fluo-8 NW increases. The dye has an absorption spectrum compatible with excitation at 488 nm by argon laser sources and its emission wavelength is in the range of 515-575 nm.
HEK-293 cells stably transfected with P2X7 receptor were seeded overnight in growth medium at 10,000 to 20,000 cells/well in 384-well plate. 24 hours later, the medium was removed and the cells were pre-loaded at RT for 1 hour with 20 μL/w of Fluo-8 NW. Then 10 μL/w of test compounds and reference antagonist A438079 at 3×-concentration were injected with the […] and the kinetic response over a period of five minutes was monitored.

P2X7 receptor = P2X7 receptor (Homo sapiens (Human), UniProt Q99572); test: YO-PRO-1 Uptake Assay (large pore form, Bz-ATP stimulated); assay type: cell-based; conditions: HEK-293 cells stably transfected with P2X7 receptor; Bz-ATP EC80 (30 μM); 5 μM YO-PRO-1
Sequence of P2X7 receptor (Q99572 whole entry): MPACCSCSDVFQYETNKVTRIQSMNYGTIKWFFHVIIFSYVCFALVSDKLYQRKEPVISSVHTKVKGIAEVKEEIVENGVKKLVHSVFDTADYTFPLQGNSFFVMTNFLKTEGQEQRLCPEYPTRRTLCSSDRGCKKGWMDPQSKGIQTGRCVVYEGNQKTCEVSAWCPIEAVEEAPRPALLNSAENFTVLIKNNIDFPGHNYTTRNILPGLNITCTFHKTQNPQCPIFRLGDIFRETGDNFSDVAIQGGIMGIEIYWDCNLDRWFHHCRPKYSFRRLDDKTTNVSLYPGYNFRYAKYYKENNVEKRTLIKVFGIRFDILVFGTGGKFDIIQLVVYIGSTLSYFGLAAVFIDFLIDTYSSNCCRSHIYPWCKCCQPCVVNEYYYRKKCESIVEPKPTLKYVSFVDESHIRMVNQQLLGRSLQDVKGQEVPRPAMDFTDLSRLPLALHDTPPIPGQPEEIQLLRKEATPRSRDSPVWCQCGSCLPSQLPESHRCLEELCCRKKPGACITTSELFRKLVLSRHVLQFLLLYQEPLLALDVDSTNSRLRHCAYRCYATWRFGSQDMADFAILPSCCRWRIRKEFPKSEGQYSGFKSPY
Description: YO-PRO®-1 is a fluorescent DNA-binding dye with a MW of 374 Da (Molecular Probes®, cat. Y3603). This method is based upon the presumed ability of YO-PRO®-1 to enter through the dilated or “large pore form” of P2X7 receptor and to bind to intracellular DNA whereupon it increases many fold its fluorescence intensity. The dye has an absorption spectrum compatible with excitation at 488 nm by argon laser sources and its emission wavelength is in the range of 515-575 nm. The aim of this assay was to validate the interaction of antagonists with P2X7 receptor using an alternative readout to Ca^2+-sensitive fluorescent dyes.
HEK-293 cells stably transfected with P2X7 receptor were seeded overnight in growth medium at 20,000 cells/well in 384-well plate. 24 hours later, the medium was removed, the cells were washed with Low Divalent Cation Assay Buffer (0.3 mM Ca2+ and 0 mM Mg2+) and then pre-loaded with 20 μL/w of 5 μM YO-PRO®-1 dye. […] fluorescence measurement immediately started. Then, 10 μL/w of test compounds and reference antagonist A438079 at 3×-concentration were injected with the […] and the kinetic response over a period of five minutes was monitored. A second injection of 10 μL/w of 3× Bz-ATP EC80 (30 μM) was performed with the […] and the signal of the emitted fluorescence was recorded for additional 60 minutes. All the experiment was carried out with a Low Divalent Cation Assay Buffer (0.3 mM Ca^2+ and 0 mM Mg^2+).
The effect of the test compounds was measured as percent inhibition vs the reference antagonist and IC50 values were calculated accordingly.

Sequence of P2X7 receptor (hP2X7) (Q99572 whole entry): as above

SMILES | IC50 (P2X7 receptor (hP2X7)) | IC50 (P2X7 receptor)
Cc1nc(C)c(C(CNC(=O)c2cc(-c3ncc(F)cn3)ccc2Cl)N2CCC(F)(F)CC2)o1 (centres unmarked) [Compound 58, 2-chloro-N-[2-(4,4-difluoropiperidin-1-yl)-2-(2,4-dimethyl-1,3-oxazol-5-yl)ethyl]-5-(5-fluoropyrimidin-2-yl)benzamide] | 1120 nM | 2970 nM
O=C(NCC(c1cncs1)N1CCC(Oc2ccccc2)CC1)c1c(F)cccc1Cl (centres unmarked) [Compound 27, 2-chloro-6-fluoro-N-[2-(4-phenoxypiperidin-1-yl)-2-(1,3-thiazol-5-yl)ethyl]benzamide] | 63 nM | 52 nM
O=C(NCC(c1cncs1)N1CCC(F)(F)CC1)c1c(F)cccc1Cl (centres unmarked) [Compound 8, 2-chloro-N-[2-(4,4-difluoro-piperidin-1-yl)-2-(1,3-thiazol-5-yl)ethyl]-6-fluoro-benzamide] | 28 nM | 389 nM
O=C(NCC(c1nccs1)N1CCC(F)(F)CC1)c1c(F)cccc1Cl (centres unmarked) [Compound 2, 2-chloro-N-[2-(4,4-difluoro-piperidin-1-yl)-2-(1,3-thiazol-2-yl)-ethyl]-6-fluoro-benzamide] | 306 nM | 1300 nM
Cc1cccc(C)c1C(=O)NCC(c1scnc1C)N1CCC(F)(F)CC1 (centres unmarked) [Compound 32, N-[2-(4,4-difluoropiperidin-1-yl)-2-(4-methyl-1,3-thiazol-5-yl)ethyl]-2,6-dimethylbenzamide] | 55 nM | 44 nM
Nc1ccc(Cl)c(C(=O)NCC(c2cncs2)N2CCOCC2)c1 (centres unmarked) [Compound 12, 5-amino-2-chloro-N-[2-(morpholin-4-yl)-2-(1,3-thiazol-5-yl)ethyl]benzamide-] | 143 nM | 846 nM
CCc1ncc(C(CNC(=O)c2c(F)cccc2Cl)N2CCC(F)(F)CC2)s1 (centres unmarked) [Compound 85, 2-chloro-N-[2-(4,4-difluoropiperidin-1-yl)-2-(2-ethyl-1,3-thiazol-5-yl)ethyl]-6-fluorobenzamide] | 62 nM | 48 nM
Cc1cccc(C)c1C(=O)NCC(c1scnc1C)N1CCOCC1 (centres unmarked) [Compound 36, 2,6-dimethyl-N-[2-(4-methyl-1,3-thiazol-5-yl)-2-(morpholin-4-yl)ethyl]benzamide] | 149 nM | 302 nM
Cc1cccc(C)c1C(=O)NCC(c1cncs1)N1CCc2ccccc2C1 (centres unmarked) [Compound 18, 2,6-dimethyl-N-[2-(1,2,3,4-tetrahydroisoquinolin-2-yl)-2-(1,3-thiazol-5-yl)ethyl]benzamide] | 90 nM | 190 nM
CCCc1ncc(C(CNC(=O)c2c(F)cccc2Cl)N2CCC(F)(F)CC2)s1 (centres unmarked) [Compound 109, 2-chloro-N-[2-(4,4-difluoropiperidin-1-yl)-2-(2-propyl-1,3-thiazol-5-yl)ethyl]-6-fluorobenzamide] | 78 nM | 50 nM
O=C(NCC(c1nccs1)N1CCc2ccccc2C1)c1c(F)cccc1Cl (centres unmarked) [Compound 1, 2-chloro-N-[2-(3,4-dihydro-1H-isoquinolin-2-yl)-2-(1,3-thiazol-2-yl)-ethyl]-6-fluoro-benzamide] | 1020 nM | 1360 nM
Cc1cccc(C)c1C(=O)NCC(c1cncs1)N1CCOCC1 (centres unmarked) [Compound 11, 2,6-dimethyl-N-[2-(morpholin-4-yl)-2-(1,3-thiazol-5-yl)ethyl]benzamide] | 81 nM | 220 nM
COc1cccc(C(=O)NCC(c2ocnc2C)N2CCC(F)(F)CC2)c1OC (centres unmarked) [Compound 50, N-[2-(4,4-difluoropiperidin-1-yl)-2-(4-methyl-1,3-oxazol-5-yl)ethyl]-2,3-dimethoxybenzamide] | 4970 nM | 2090 nM
O=C(NCC(c1cnc(C2CCC2)s1)N1CCC(F)(F)CC1)c1cccc2ncccc12 (centres unmarked) [Compound 105, N-[2-(2-cyclobutyl-1,3-thiazol-5-yl)-2-(4,4-difluoropiperidin-1-yl)ethyl]quinoline-5-carboxamide] | 292 nM | 135 nM
Cc1ncc(C(CNC(=O)c2c(F)cccc2Cl)N2CCC(OCc3ccccc3)CC2)s1 (centres unmarked) [Compound 62, N-{2-[4-(benzyloxy)piperidin-1-yl]-2-(2-methyl-1,3-thiazol-5-yl)ethyl}-2-chloro-6-fluorobenzamide] | 576 nM | 1110 nM
CCCc1ncc(C(CNC(=O)c2cc(-c3ncc(F)cn3)ccc2Cl)N2CCC(F)(F)CC2)s1 (centres unmarked) [Compound 107, 2-chloro-N-[2-(4,4-difluoropiperidin-1-yl)-2-(2-propyl-1,3-thiazol-5-yl)ethyl]-5-(5-fluoropyrimidin-2-yl)benzamide] | 631 nM | 158 nM
Cc1ncc(C(CNC(=O)c2c(F)cccc2Cl)N2CCC(F)(F)CC2)s1 (centres unmarked) [Compound 38, 2-chloro-N-[2-(4,4-difluoropiperidin-1-yl)-2-(2-methyl-1,3-thiazol-5-yl)ethyl]-6-fluorobenzamide] | 87 nM | 49 nM
Cc1ncsc1C(CNC(=O)c1cc(-c2ncc(F)cn2)ccc1Cl)N1CCOC2(CCC2)C1 (centres unmarked) [Compound 93, 2-chloro-5-(5-fluoropyrimidin-2-yl)-N-[2-(4-methyl-1,3-thiazol-5-yl)-2-{5-oxa-8-azaspiro[3.5]nonan-8-yl}ethyl]benzamide] | 116 nM | 82 nM
Nc1ccc(Cl)c(C(=O)NCC(c2cncs2)N2CCc3ccccc3C2)c1 (centres unmarked) [Compound 17, 5-amino-2-chloro-N-[2-(1,2,3,4-tetrahydroisoquinolin-2-yl)-2-(1,3-thiazol-5-yl)ethyl]benzamide] | 136 nM | 690 nM
COc1cccc(C(=O)NCC(c2ocnc2C)N2CCc3ccccc3C2)c1OC (centres unmarked) [Compound 56, 2,3-dimethoxy-N-[2-(4-methyl-1,3-oxazol-5-yl)-2-(1,2,3,4-tetrahydroisoquinolin-2-yl)ethyl]benzamide] | 147 nM | 414 nM
O=C(NCC(c1cnco1)N1CCOCC1)c1c(F)cccc1Cl (centres unmarked) [Compound 44, 2-chloro-6-fluoro-N-[2-(morpholin-4-yl)-2-(1,3-oxazol-5-yl)ethyl]benzamide] | 677 nM | 500 nM
Cc1ncsc1C(CNC(=O)c1c(F)cccc1Cl)N1CCOC(c2ccc(F)cc2F)C1 (centres unmarked) [Compound 91, 2-chloro-N-{2-[2-(2,4-difluorophenyl)morpholin-4-yl]-2-(4-methyl-1,3-thiazol-5-yl)ethyl}-6-fluorobenzamide] | 72 nM | 53 nM
Cc1cccc(C)c1C(=O)NCC(c1cncs1)N1CCC(Oc2ccccc2)CC1 (centres unmarked) [Compound 26, 2,6-dimethyl-N-[2-(4-phenoxypiperidin-1-yl)-2-(1,3-thiazol-5-yl)ethyl]benzamide] | 119 nM | 44 nM
Cc1ncc(C(CNC(=O)c2c(C)cccc2C)N2CCC(F)(F)CC2)s1 (centres unmarked) [Compound 40, N-[2-(4,4-difluoropiperidin-1-yl)-2-(2-methyl-1,3-thiazol-5-yl)ethyl]-2,6-dimethylbenzamide] | 30 nM | 18 nM
O=C(NCC(c1cscn1)N1CCC(F)(F)CC1)c1c(F)cccc1Cl (centres unmarked) [Compound 4, 2-chloro-N-[2-(4,4-difluoropiperidin-1-yl)-2-(1,3-thiazol-4-yl)ethyl]-6-fluorobenzamide] | 845 nM | 3300 nM
Cc1ncsc1C(CNC(=O)c1cc(-c2ncc(F)cn2)ccc1Cl)N1CCOCC1 (centres unmarked) [Compound 37, 2-chloro-5-(5-fluoropyrimidin-2-yl)-N-[2-(4-methyl-1,3-thiazol-5-yl)-2-(morpholin-4-yl)ethyl]benzamide] | 106 nM | 90 nM
O=C(NCC(c1cnc(C2CCC2)s1)N1CCC(F)(F)CC1)c1cc(-c2ncc(F)cn2)ccc1F (centres unmarked) [Compound 106, N-[2-(2-cyclobutyl-1,3-thiazol-5-yl)-2-(4,4-difluoropiperidin-1-yl)ethyl]-2-fluoro-5-(5-fluoropyrimidin-2-yl)benzamide] | 1240 nM | 807 nM
O=C(NCC(c1scnc1C(F)F)N1CCC(F)(F)CC1)c1c(F)cccc1Cl (centres unmarked) [Compound 95, 2-chloro-N-{2-[4-(difluoromethyl)-1,3-thiazol-5-yl]-2-(4,4-difluoropiperidin-1-yl)ethyl}-6-fluorobenzamide] | 54 nM | 82 nM
